71 compounds from patent US20250186321A1, “FORMULATION USING AMINO ACID AND CARBOXYLIC ACID, ORGANIC SALT, AND COMPOSITION COMPRISING SAME AND USE THEREOF” (MIYOSHI OIL & FAT CO., LTD., priority 2021, published 2025) can be followed below.

A short description of this data set: Appearance of formulation (state at 25° C.). In kind it is physicochemical. The method, then: Formulations 1 to 427 shown in Tables 1A to 1D were prepared by the above-described method using the components (A) and (B) at the compounding molar ratios shown in the tables, and their states at 25° C. were observed.
Where [1] appears, read: 25° C., components (A) and (B) at the compounding molar ratio shown.

The structures appear in SMILES notation.

Regarding `NCCCC[C@H](N)C(=O)O.O=CO` [Formulation 1], under setting [1], the “state at 25° C.” value is “Solid”.
The same measure, in the same setting: in the case of `CC(=O)O.NCCCC[C@H](N)C(=O)O` [Formulation 2] it was “Solid”.
On the same count and under the same terms, in the case of `CCC(=O)O.NCCCC[C@H](N)C(=O)O` [Formulation 3] it was “Solid”.
Same read-out and setting: in the case of `CCCC(=O)O.NCCCC[C@H](N)C(=O)O` [Formulation 5] it was “Solid”; in that of `CCCCC/C=C\C/C=C\CCCCCCCC(=O)O.NCCCC[C@H](N)C(=O)O` [Formulation 8], “Solid”.
On to `CC(O)C(=O)O.NCCCCC(N)C(=O)O` (stereo not drawn) [Formulation 10], for which the “state at 25° C.” value under setting [1] is reported as “Solid”.
The same measure, in the same setting: with `NCCCC[C@H](N)C(=O)O.O=C(O)CCCCC(=O)O` [Formulation 11] the entry was “Solid”; with `NCCCC[C@H](N)C(=O)O.O=C(O)CCC(=O)O` [Formulation 12], “Solid”; with `NCCCC[C@H](N)C(=O)O.N[C@@H](CCC(=O)O)C(=O)O` [Formulation 13], “Solid”.
The same measure, in the same setting: with `NCCCC[C@H](N)C(=O)O.O=C(O)/C=C/C(=O)O` [Formulation 14] the entry was “Liquid”; with `NCCCC[C@H](N)C(=O)O.O=C(O)C[C@H](O)C(=O)O` [Formulation 15], “Solid”; with `NCCCC[C@H](N)C(=O)O.O=C(O)C(O)C(O)C(=O)O` [Formulation 17], “Solid”.
On the same count and under the same terms, with `NCCCC[C@H](N)C(=O)O.O=C(O)c1ccccc1` [Formulation 18] the entry was “Solid”.
Consider `NCCCC[C@H](N)C(=O)O.O=C(O)/C=C/c1ccccc1` [Formulation 19], for which the “state at 25° C.” value under setting [1] is given as “Solid”.
Still for that read-out and setting: in the case of `NCCCC[C@H](N)C(=O)O.O=C1O[C@H]([C@@H](O)CO)C(O)=C1O` [Formulation 20] it was “Solid”; in that of `NCCCC[C@H](N)C(=O)O.O=C1O[C@H]([C@H](O)CO)C(O)=C1O` [Formulation 21], “Liquid”; in that of `NCCCC[C@H](N)C(=O)O.O=CO.O=CO` [Formulation 22], “Solid”.
Still for that read-out and setting: with `CC(=O)O.CC(=O)O.NCCCC[C@H](N)C(=O)O` [Formulation 23] the entry was “Solid”.
Same read-out and setting: in the case of `CCC(=O)O.CCC(=O)O.NCCCC[C@H](N)C(=O)O` [Formulation 24] it was “Solid”; in that of `CCCCCC(=O)O.CCCCCC(=O)O.NCCCC[C@H](N)C(=O)O` [Formulation 25], “Solid”.
Consider `CCCC(=O)O.CCCC(=O)O.NCCCC[C@H](N)C(=O)O` [Formulation 26], for which the “state at 25° C.” value under setting [1] is “Solid”.
On to `CCCCCCCC/C=C\CCCCCCCC(=O)O.CCCCCCCC/C=C\CCCCCCCC(=O)O.NCCCC[C@H](N)C(=O)O` [Formulation 28], for which the “state at 25° C.” value under setting [1] is “Solid”.
Turning to `CCCCC/C=C\C/C=C\CCCCCCCC(=O)O.CCCCC/C=C\C/C=C\CCCCCCCC(=O)O.NCCCC[C@H](N)C(=O)O` [Formulation 29], the “state at 25° C.” value under setting [1] is reported as “Solid”.
The same measure, in the same setting: in the case of `CC(O)C(=O)O.CC(O)C(=O)O.NCCCC[C@H](N)C(=O)O` [Formulation 31] it was “Solid”.
For `NCCCC[C@H](N)C(=O)O.O=C(O)CCCCC(=O)O.O=C(O)CCCCC(=O)O` [Formulation 32], the “state at 25° C.” value under setting [1] is “Solid”.
On the same count and under the same terms, in the case of `NCCCC[C@H](N)C(=O)O.O=C(O)CCC(=O)O.O=C(O)CCC(=O)O` [Formulation 33] it was “Solid”.
For the compound `NCCCC[C@H](N)C(=O)O.N[C@@H](CCC(=O)O)C(=O)O.N[C@@H](CCC(=O)O)C(=O)O` [Formulation 34], the “state at 25° C.” value is, setting by setting: under setting [1], “Solid”; (Tables 1C-1 to 1D, compounding molar ratio (Component (A):Component (B)) 1:1) “Solid”.
Regarding `NCCCC[C@H](N)C(=O)O.O=C(O)/C=C/C(=O)O.O=C(O)/C=C/C(=O)O` [Formulation 35], under setting [1], the “state at 25° C.” value was “Solid”.
Same read-out and setting: with `NCCCC[C@H](N)C(=O)O.O=C(O)C[C@H](O)C(=O)O.O=C(O)C[C@H](O)C(=O)O` [Formulation 36] the entry was “Solid”; with `NCCCC[C@H](N)C(=O)O.O=C(O)C(O)C(O)C(=O)O.O=C(O)C(O)C(O)C(=O)O` [Formulation 38], “Solid”.
The same measure, in the same setting: with `NCCCC[C@H](N)C(=O)O.O=C(O)c1ccccc1.O=C(O)c1ccccc1` [Formulation 39] the entry was “Solid”; with `NCCCCC(N)C(=O)O.O=C(O)C=Cc1ccccc1.O=C(O)C=Cc1ccccc1` [Formulation 40], “Solid”; with `NCCCC[C@H](N)C(=O)O.O=C1O[C@H]([C@@H](O)CO)C(O)=C1O.O=C1O[C@H]([C@@H](O)CO)C(O)=C1O` [Formulation 41], “Solid”.
Still for that read-out and setting: with `NCCCC[C@H](N)C(=O)O.O=C1O[C@H]([C@H](O)CO)C(O)=C1O.O=C1O[C@H]([C@H](O)CO)C(O)=C1O` [Formulation 42] the entry was “Solid”; with `N=C(N)NCCC[C@H](N)C(=O)O.O=CO` [Formulation 43], “Solid”; with `CC(=O)O.N=C(N)NCCC[C@H](N)C(=O)O` [Formulation 44], “Solid”.
Turning to `CCC(=O)O.N=C(N)NCCC[C@H](N)C(=O)O` [Formulation 45], the “state at 25° C.” value under setting [1] was “Solid”.
Regarding `CCCCCC(=O)O.N=C(N)NCCC[C@H](N)C(=O)O` [Formulation 46], the “state at 25° C.” value under setting [1] was “Solid”.
On the same count and under the same terms, in the case of `CCCC(=O)O.N=C(N)NCCC[C@H](N)C(=O)O` [Formulation 47] it was “Solid”; in that of `N=C(N)NCCC[C@H](N)C(=O)O.O=C(O)CCCCC(=O)O` [Formulation 53], “Solid”; in that of `N=C(N)NCCC[C@H](N)C(=O)O.O=C(O)CCC(=O)O` [Formulation 54], “Solid”.
Same read-out and setting: in the case of `N=C(N)NCCC[C@H](N)C(=O)O.N[C@@H](CCC(=O)O)C(=O)O` [Formulation 55] it was “Solid”; in that of `N=C(N)NCCC[C@H](N)C(=O)O.O=C(O)/C=C/C(=O)O` [Formulation 56], “Solid”; in that of `N=C(N)NCCC[C@H](N)C(=O)O.O=C(O)/C=C/c1ccccc1` [Formulation 61], “Solid”.
Still for that read-out and setting: with `N=C(N)NCCCC(N)C(=O)O.O=CO.O=CO` (stereo not drawn) [Formulation 64] the entry was “Solid”; with `CC(=O)O.CC(=O)O.N=C(N)NCCC[C@H](N)C(=O)O` [Formulation 65], “Solid”.
Regarding `CCC(=O)O.CCC(=O)O.N=C(N)NCCC[C@H](N)C(=O)O` [Formulation 66], the “state at 25° C.” value under setting [1] is given as “Solid”.
In the case of `CCCCCC(=O)O.CCCCCC(=O)O.N=C(N)NCCC[C@H](N)C(=O)O` [Formulation 67], the “state at 25° C.” value under setting [1] is listed as “Solid”.
In the case of `CCCC(=O)O.CCCC(=O)O.N=C(N)NCCC[C@H](N)C(=O)O` [Formulation 68], the “state at 25° C.” value under setting [1] was “Solid”.
Same read-out and setting: with `N=C(N)NCCC[C@H](N)C(=O)O.O=C(O)CCCCC(=O)O.O=C(O)CCCCC(=O)O` [Formulation 74] the entry was “Solid”; with `N=C(N)NCCC[C@H](N)C(=O)O.O=C(O)CCC(=O)O.O=C(O)CCC(=O)O` [Formulation 75], “Solid”.
Still for that read-out and setting: in the case of `N=C(N)NCCC[C@H](N)C(=O)O.N[C@@H](CCC(=O)O)C(=O)O.N[C@@H](CCC(=O)O)C(=O)O` [Formulation 76] it was “Solid”; in that of `N=C(N)NCCC[C@H](N)C(=O)O.O=C(O)/C=C/C(=O)O.O=C(O)/C=C/C(=O)O` [Formulation 77], “Solid”.
Still for that read-out and setting: with `N=C(N)NCCC[C@H](N)C(=O)O.O=C(O)c1ccccc1.O=C(O)c1ccccc1` [Formulation 81] the entry was “Solid”; with `N=C(N)NCCCC(N)C(=O)O.O=C(O)C=Cc1ccccc1.O=C(O)C=Cc1ccccc1` (stereo not drawn) [Formulation 82], “Solid”.
`N=C(N)NCCC[C@H](N)C(=O)O.O=C1O[C@H]([C@@H](O)CO)C(O)=C1O.O=C1O[C@H]([C@@H](O)CO)C(O)=C1O` [Formulation 83]: under setting [1], the “state at 25° C.” value is reported as “Solid”.
Still for that read-out and setting: with `N[C@@H](Cc1c[nH]cn1)C(=O)O.O=CO` [Formulation 85] the entry was “Solid”.
For the compound `CC(=O)O.N[C@@H](Cc1c[nH]cn1)C(=O)O` [Formulation 86], under setting [1], the “state at 25° C.” value is reported as “Solid”.
Regarding `CCC(=O)O.N[C@@H](Cc1c[nH]cn1)C(=O)O` [Formulation 87], under setting [1], the “state at 25° C.” value is “Solid”.
Regarding `CCCCCC(=O)O.N[C@@H](Cc1c[nH]cn1)C(=O)O` [Formulation 88], the “state at 25° C.” value under setting [1] is reported as “Solid”.
Same read-out and setting: in the case of `CCCC(=O)O.N[C@@H](Cc1c[nH]cn1)C(=O)O` [Formulation 89] it was “Solid”.
Same read-out and setting: in the case of `CCCCCCCC/C=C\CCCCCCCC(=O)O.N[C@@H](Cc1c[nH]cn1)C(=O)O` [Formulation 91] it was “Solid”; in that of `CCCCC/C=C\C/C=C\CCCCCCCC(=O)O.N[C@@H](Cc1c[nH]cn1)C(=O)O` [Formulation 92], “Solid”; in that of `CC(O)C(=O)O.N[C@@H](Cc1cnc[nH]1)C(=O)O` [Formulation 94], “Solid”.
Still for that read-out and setting: with `N[C@@H](Cc1c[nH]cn1)C(=O)O.O=C(O)CCCCC(=O)O` [Formulation 95] the entry was “Solid”.
`N[C@@H](Cc1c[nH]cn1)C(=O)O.O=C(O)CCC(=O)O` [Formulation 96]: under setting [1], the “state at 25° C.” value is reported as “Solid”.
Same read-out and setting: in the case of `N[C@@H](CCC(=O)O)C(=O)O.N[C@@H](Cc1c[nH]cn1)C(=O)O` [Formulation 97] it was “Solid”.
Regarding `N[C@@H](Cc1c[nH]cn1)C(=O)O.O=C(O)/C=C/C(=O)O` [Formulation 98], the “state at 25° C.” value under setting [1] is listed as “Solid”.
Same read-out and setting: in the case of `N[C@@H](Cc1cnc[nH]1)C(=O)O.O=C(O)C[C@H](O)C(=O)O` [Formulation 99] it was “Solid”; in that of `N[C@@H](Cc1c[nH]cn1)C(=O)O.O=C(O)C(O)C(O)C(=O)O` [Formulation 101], “Solid”.
Regarding `N[C@@H](Cc1c[nH]cn1)C(=O)O.O=C(O)c1ccccc1` [Formulation 102], the “state at 25° C.” value under setting [1] is reported as “Solid”.
